Key:
Format in all cases: cell-based
AGS cell strain [1] = assay: Effect on cell cycle (propidium iodide staining, FACS, sub G1); conditions: mimic 10 nM, 10 uM 5-FU 24 h after transfection, then 48 hours, relative to scrambled control (=1)
Protocol: The AGS cells were divided into a 96-well plate such that 2×10^5 AGS cells were allocated to each well, and synthesized miRNAs (10 nM) were transfected and cultured at 37° C. in an incubator. Twenty four hours after the transfection, 10 uM of 5-FU, which is an anti-cancer agent, was treated in one case or not treated in another case, and then the resulting mixture was cultured in an incubator at 37° C. for 48 hours. The cells were detached by using Trypsin-EDTA and washed with PBS two times.
Immediately after the AGS cell strains, which are EBV-negative cell strains, were divided into a 6-well plate such that 2×10^5 AGS cells were allocated to each well, a synthesized miRNA (10 nM) was transfected by using G-fectin and cultured at 37° C. in an incubator. Twenty four hours after the transfection, 10 uM of 5-FU was treated and the resulting mixture was cultured at 37° C. in an incubator for 48 hours. The cells were detached by using Trypsin-EDTA and washed with PBS two times. Afterwards, DNA was stained by propidium iodide staining and the ratio of cells where cell cycle was changed was investigated by FACS.

AGS cell strain [2] = assay: Measurement of apoptosis (Annexin V staining, FACS); conditions: for Relative Apoptotic cell: AGS, mimic 10 nM, 10 uM 5-FU 24 h after transfection, then 48 hours, Annexin V, relative to scrambled control (=1), n=9
Protocol: Immediately after the AGS cell strain, which is an EBV-negative cell strain, was divided was divided into a 6-well plate such that 2×10^5 AGS cells were allocated to each well, a synthesized miRNA (10 nM) was transfected by using G-fectin and the resulting mixture was cultured at 37 t in an incubatorTwenty four hours after the transfection, 10 uM of 5-FU was treated and the resulting mixture was cultured in an incubator at 37° C. for 48 hours. The cells were detached by using Trypsin-EDTA and washed with PBS two times. Afterwards, the cells were treated with a PE Annexin V Apoptosis Detection Kit and the changed ratio of apoptotic cell was investigated by FACS (FIG. 7).
Immediately after the AGS cell strain, which is an EBV-negative cell strain, is divided into a 6-well plate such that 2×10^5 AGS cells were allocated to each well, a synthesized miRNA (10 nM) was transfected by using G-fectin and the resulting mixture was cultured at 37° C. Twenty four hours after the transfection, 10 uM of 5-FU, which is an anti-cancer agent, was treated and the resulting mixture was cultured in an incubator at 37° C. for 48 hours. The cells were detached by using Trypsin-EDTA and washed with PBS two times. Afterwards, the cells were treated with a PE Annexin V Apoptosis Detection Kit and the ratio of cells where apoptosis took place was measured by FACS.

AGS cell strain [3] = assay: Cell growth test (CCK-8 assay) after transfection of BART miRNA mimics; conditions: mimic 10 nM, 72 hours after transfection, relative to scrambled control (=1), n=9
Protocol: An AGS cell strain (Korean Cell Line Bank), which is a stomach cancer cell strain, was cultured in an RPMI1640 (Gibco) culture medium including 10% fetal bovine serum. Mature type synthesized BART miRNAs were transfected to the AGS cell strain by using G-fectin (Genolution) according to a protocol of the manufacture.
To investigate the effect of individual EBV BART miRNAs on the AGS cell strain, the synthesized miRNAs were transfected to the AGS cell strain and, after 72 hours, cells were counted by CCK-8 assay.
Immediately after the AGS cell strain, which is an EBV-negative cell strain, was divided into 96-well plate having 1×10^3 cells/well, a synthesized miRNA (10 nM) was transfected by using G-fectin. After the transfection, according to the experimental objective, the cells were cultured at 37° C. in an incubator, and then CCK-8 was divided among the wells by allocating 10 μl of CCK-8 to each well and the resulting mixture was cultured in an incubator at 37° C. for two hours. Then, the light absorbance was measured with an ELISA measuring instrument.
By the method described in Example 3, miR-BART5-5p mimic or miR-BART15-3p mimic (10 nM) were transfected to the AGS cell strain, and the effect thereof on cell growth was investigated over time.
miR-BART5-5p, miR-BART15-3p, and miR-BART20-3p were transfected to the AGS cell strain (1×10^3 cells/well) in a concentration of 1, 3, 10, and 30 nM, and the effect on cell growth was investigated. Immediately after the AGS cell strain was divided into a 96-well plate such that 1×10^3 AGS cells were allocated to each well, a synthesized miRNA was transfected by using G-fectin. Seventy two hours after the transfection, CCK-8 was divided among the wells by allocating 10 μl of CCK-8 to each well, and the resulting mixture was cultured at 37° C. in an incubator for two hours.

BART22-3p: EBV BART miRNA mimic, double stranded RNA; sense SEQ NO: 55, antisense SEQ NO: 56 (sense UUACAAAGUCAUGGUCUAGUAGU; antisense ACUACUAGACCAUGACUUUGUAA; chemistry not given here)
Relative Sub G1 (AGS cell strain [1]): 1.054
Relative Apoptotic cell (AGS cell strain [2]): 1.106
Relative Cell Growth (AGS cell strain [3]): 1.495

BART4-3p: EBV BART miRNA mimic, double stranded RNA; sense SEQ NO: 7, antisense SEQ NO: 8 (sense CACAUCACGUAGGCACCAGGUGU; antisense ACACCUGGUGCCUACGUGAUGUG; chemistry not given here)
Relative Sub G1 (AGS cell strain [1]): 0.755
Relative Apoptotic cell (AGS cell strain [2]): 1.133
Relative Apoptotic cell (AGS cell strain [2]; listed as 4-3p): significantly higher
effect on cell growth and apoptosis (summary statement) (AGS cell strain [2]; mimics transfected to AGS, tumor cell strain not infected with EBV): inhibit cell growth and promote apoptosis
Relative Cell Growth (AGS cell strain [3]): 1.065

BART8-3p: EBV BART miRNA mimic, double stranded RNA; sense SEQ NO: 47, antisense SEQ NO: 48 (sense GUCACAAUCUAUGGGGUCGUAGA; antisense UCUACGACCCCAUAGAUUGUGAC; chemistry not given here)
Relative Sub G1 (AGS cell strain [1]): 0.9616
Relative Apoptotic cell (AGS cell strain [2]): 1.072
Relative Cell Growth (AGS cell strain [3]): 1.396

BART12-3p: EBV BART miRNA mimic, double stranded RNA; sense SEQ NO: 67, antisense SEQ NO: 68 (sense UCCUGUGGUGUUUGGUGUGGUU; antisense AACCACACCAAACACCACAGGA; chemistry not given here)
Relative Sub G1 (AGS cell strain [1]): 1.317
Relative Sub G1 (AGS cell strain [1]; listed as 12-3p): increased
Relative Apoptotic cell (AGS cell strain [2]): 1.084
Relative Cell Growth (AGS cell strain [3]): 1.102

BART15-5p: EBV BART miRNA mimic, double stranded RNA; sense SEQ NO: 13, antisense SEQ NO: 14 (sense AGGGAAACAUGACCACCUGAAGUC; antisense GACUUCAGGUGGUCAUGUUUCCCU; chemistry not given here)
Relative Sub G1 (AGS cell strain [1]): 0.8195
Relative Apoptotic cell (AGS cell strain [2]): 1.022
Relative Cell Growth (AGS cell strain [3]): 0.9545

BART19-5p: EBV BART miRNA mimic, double stranded RNA; sense SEQ NO: 69, antisense SEQ NO: 70 (sense ACAUUCCCCGCAAACAUGACAUG; antisense CAUGUCAUGUUUGCGGGGAAUGU; chemistry not given here)
Relative Sub G1 (AGS cell strain [1]): 1.349
Relative Sub G1 (AGS cell strain [1]; listed as 19-5p): increased
Relative Apoptotic cell (AGS cell strain [2]): 1.071
Relative Cell Growth (AGS cell strain [3]): 1.151

Reference: patent US9243247B2, “Composition for promoting apoptosis or inhibiting cell growth, comprising epstein-barr virus microrna” (Catholic University Industry Academic Cooperation Foundation, priority 2011, dated 2016)
